Reference: patent US9326988B2, “Treatment and/or prevention of parkinson's disease dementia with ceftriaxone” (CHUNG SHAN MEDICAL UNIVERSITY, priority 2012, dated 2016)

Key:
Format in all cases: in vivo, male Wistar rats
[1] = tested on: rats with PDD; test: Nissl staining of pyramidal neurons in the hippocampal CA1 area of PDD rats; settings: Example 1 treatment group 1: 200 mg/kg daily i.p. for 14 days after MPTP-HCl; determined 15th day (FIG. 6)
Text: (§1) In order to investigate whether ceftriaxone is effective in ameliorating neuroinflammation and neurodegeneration of the rats with PDD, on the 15th day after the MPTP-HCl injection, four rats were randomly selected from each of the treatment group 1, the sham-operated group 1, and the pathological control group for histopathological analysis.
(§2) The randomly selected rats were sacrificed using CO2, followed by perfusion with 4% paraformaldehyde (in phosphate buffered saline). The brains were rapidly removed and were post-fixed in a 30% sucrose solution containing 4% paraformaldehyde at 4° C. for at least three days. The brains were cut into coronal sections (a thickness of about 30 μm) using a cryostat (Leica CM3050 S, Leica).
In addition, the sections containing the hippocampal CA1 area were selected and were subjected to Nissl staining according to the method well known to and commonly used by one skilled in the art. […] Image Pro Plus Software 6.0 was utilized to estimate the percentage of an area occupied by pyramidal neurons in an area of 2,354 μm^2 according to the semi-quantitative method as described in Xavier L. L. et al. (2005), Brain Research protocols, 16:58-64.
The experimental data are expressed as mean±SEM. […]

[2] = tested on: rats with PDD; test: Object recognition test in MPTP-HCl-induced PDD rats
Description: 1-methyl-4-phenyl-1,2,3,6-tetrahydropyridine hydrochloride (MPTP-HCl) was used to induce PDD in the rats, and the therapeutic effect of ceftriaxone on PDD was evaluated via behavioral tests and histopathological assessment of the brain for the rats. The experiments of this example were conducted substantially according to the method as described in Ho Y. J. et al. (2011), Behav. Brain Res., 219:280-290.
The rats in the pathological control group, the preventive groups, and the treatment groups were anesthetized using Zoletil (Virbac, Carros, France; 20 mg/kg, intraperitoneal injection). Afterward, 0.5 M MPTP-HCl (in saline) was slowly infused bilaterally into the substantia nigra pars compacta (SNc) of the mesencephalon of each rat in the pathological control group, the preventive groups, and the treatment groups (0.21 mg/side) so as to induce the same to develop PDD.
5 days before the MPTP-HCl injection, ceftriaxone (Sigma) was administered to the rats in the preventive groups 1,2 via intraperitoneal injection respectively at a daily dose of 100 mg/kg and at a daily dose of 200 mg/kg until the end of the 14th day after the MPTP-HCl injection. After the MPTP-HCl injection, ceftriaxone was administered to the rats in the treatment group 1 and the sham-operated groups 2,3 via intraperitoneal injection respectively at a daily dose of 200 mg/kg, at a daily dose of 100 mg/kg, and at a daily dose of 200 mg/kg, and saline was administered to the rats in the pathological control group and the sham-operated group 1 via intraperitoneal injection at a daily dose of 1 mL/kg. In addition, starting on the 3rd day after the MPTP-HCl injection, ceftriaxone was administered to the rats in the treatment groups 2,3 via intraperitoneal injection respectively at a daily dose of 100 mg/kg and at a daily dose of 200 mg/kg. The rats in the pathological control group, the treatment groups 1,2,3, and the sham-operated groups 1,2,3 were subjected to the once-a-day administration until the end of the 14th day after the MPTP-HCl injection.
Starting on the 8th day after the MPTP-HCl injection, the rats in each group were subjected to the T-maze test as described in section C of this example. Starting on the 12th day after the MPTP-HCl injection, the rats in each group were subjected to the object recognition test as described in section D of this example. On the 15th day after the MPTP-HCl injection, the rats in the treatment group 1, the sham-operated group 1, and the pathological control group were subjected to the histopathological analysis as described in section E of this example.
In order to examine the effect of ceftriaxone on the recognition and/or memory ability of the rats with PDD, starting on the 12th day after the MPTP-HCl injection, all of the rats in each group were subjected to an object recognition test lasting a total of three days.
The object recognition test is described as follows. The object recognition test included four trials. The first and second trilas were conducted respectively on the 12th and 13th after the MPTP-HCl injection, and the third and fourth trials were conducted on the 14th day after the MPTP-HCl injection. Each of the four trials lasted 5 minutes. The time interval between the first and second trials, and that between the second and third trials were 1 day. The time interval between the third and fourth trials was 5 minutes. At the beginning of each of the four trials, the respective rat was placed in the open box and adjacent to the corner C4 thereof. During the first, second, and third trials, the objects A1, A2, A3 were disposed in the open box for being able to be explored by the respective rat (see FIG. 2(A)). During the fourth trial, the object A3 was replaced with the object B (see FIG. 2(B)). During the object recognition test, a video camera installed above the open box was used to monitor and record the behavior of the respective rat.

[3] = tested on: rats with PDD; test: Immunohistochemical staining (OX-6) of activated microglia in the SNc of PDD rats; settings: Example 1 treatment group 1: 200 mg/kg daily i.p. for 14 days after MPTP-HCl; determined 15th day (FIG. 5)
Text: as §1, §2
The sections containing SNc were selected. […]
The experimental data are expressed as mean±SEM. The experimental data were subjected to one-way ANOVA and were subsequently subjected to LSD test such that the difference between the pathological control group and the sham-operated group 1, and the difference between the treatment group 1 and the pathological control group could be evaluated. […]

CO/N=C(\C(=O)N[C@@H]1C(=O)N2C(C(=O)O)=C(CSc3nc(=O)c(=O)[nH]n3C)CS[C@H]12)c1csc(N)n1 [ceftriaxone, Ceftriaxone]
there is statistical significance: percentage of exploration time spent on object B in the fourth trial versus object A3 in the third trial ([2]; Example 1 preventive group 1: 100 mg/kg daily i.p. from 5 days before MPTP-HCl, determined 14th day (FIG. 4)) | percentage of exploration time spent on object B in the fourth trial versus object A3 in the third trial ([2]; Example 1 preventive group 2: 200 mg/kg daily i.p. from 5 days before MPTP-HCl, determined 14th day (FIG. 4)) | percentage of exploration time spent on object B in the fourth trial versus object A3 in the third trial ([2]; Example 1 treatment group 1: 200 mg/kg daily i.p. after MPTP-HCl injection to 14th day, determined 14th day (FIG. 4)) | percentage of exploration time spent on object B in the fourth trial versus object A3 in the third trial ([2]; Example 1 treatment group 2: 100 mg/kg daily i.p. starting 3rd day after MPTP-HCl, determined 14th day (FIG. 4)) | percentage of exploration time spent on object B in the fourth trial versus object A3 in the third trial ([2]; Example 1 treatment group 3: 200 mg/kg daily i.p. starting 3rd day after MPTP-HCl, determined 14th day (FIG. 4)) | percentage of exploration time spent on object B in the fourth trial versus object A3 in the third trial ([2]; Example 2 treatment group 1: 10 mg/kg daily i.p. after MPTP-HCl injection, determined 14th day (FIG. 8)) | percentage of exploration time spent on object B in the fourth trial versus object A3 in the third trial ([2]; Example 2 treatment group 2: 50 mg/kg daily i.p. after MPTP-HCl injection, determined 14th day (FIG. 8))
significantly higher: percentage of an area occupied by pyramidal neurons in the hippocampal CA1 area compared to the pathological control group [1]
significantly lower: density of activated microglia in the SNc compared to the pathological control group [3]
